Source: article PMC11106739, “Discovery and Derivatization of Tridecaptin Antibiotics with Altered Host Specificity and Enhanced Bioactivity” (ACS Chemical Biology, 2024)
Converted amounts (≈) assume the structure as drawn. Where a SMILES comes first, the peptide text is derived from it. [ ]: non-standard residue; d: D form. The star is where a group is joined. d(aIle) = CC[C@H](C)[C@@H](N)C(=O)O; dDab = NCC[C@@H](N)C(=O)O; Octanoyl = CCCCCCCC(=O)*; Dab = NCC[C@H](N)C(=O)O

How the values were obtained:
S. aureus 1126387 = assay type: cell-based, Staphylococcus aureus; conditions: 1126387, 20 h
Description: (§1) All minimum inhibitory concentrations (MICs) were determined according to the Clinical and Standards Laboratory Institute (CLSI) guidelines. In brief, agar plates were inoculated from glycerol stocks and incubated overnight at 35 °C. Peptide DMSO stocks were dispensed into 96-well round-bottom plates using a TECAN D300e dispenser. Colistin sulfate (Sigma-Aldrich) was dissolved in water and serially diluted in a cation-adjusted Mueller Hinton broth (10 μL per well). Final concentrations of the test compounds were 0.06 to 64 μg/mL. Inocula were prepared by direct colony suspension in NaCl at 0.5 MacFarland, which was further diluted 200-fold in cation-adjusted Mueller Hinton broth for a target inoculum of 2 × 10^5 colony forming units (CFUs)/mL. 100 μL portion of the prepared inoculum was added to each well of the prepared plates containing the test compounds. Plates were sealed with parafilm and incubated for 20 h at 35 °C. Images of all plates were recorded, and MIC was assessed visually.

S. aureus ATCC 29213 = assay type: cell-based, Staphylococcus aureus; conditions: ATCC 29213, 20 h
Description: as §1

S. aureus UAMS-1625 = assay type: cell-based, Staphylococcus aureus; conditions: S. aureus UAMS-1625 (BV18); CLSI broth dilution, cation-adjusted Mueller Hinton broth, 20 h, 35 °C, read visually
Description: as §1

ATCC 25922 = assay type: cell-based, Enterococcus faecalis; conditions: ATCC 25922, 20 h
Description: as §1

E. faecalis ATCC 29212 = assay type: cell-based, Enterococcus faecalis; conditions: ATCC 29212, 20 h
Description: as §1

E. faecium ATCC 51559 = assay type: cell-based, Enterococcus faecium; conditions: ATCC 51559, 20 h
Description: as §1

E. faecium IHMA 890472 = assay type: cell-based, Enterococcus faecium; conditions: IHMA 890472, 20 h
Description: as §1

A. baumannii ATCC 17978 = assay type: cell-based, Acinetobacter baumannii; conditions: ATCC 17978, 20 h
Description: as §1

A. baumannii HUMC1 = assay type: cell-based, Acinetobacter baumannii; conditions: HUMC1, 20 h
Description: as §1

A. baumannii IHMA 777621 = assay type: cell-based, Acinetobacter baumannii; conditions: IHMA 777621, 20 h
Description: as §1

E. coli 1214245 = assay type: cell-based, Escherichia coli; conditions: 1214245, 20 h
Description: as §1

E. coli 1220120 = assay type: cell-based, Escherichia coli; conditions: 1220120, 20 h
Description: as §1

E. coli ATCC 25922 = assay type: cell-based, Escherichia coli; conditions: ATCC 25922, 20 h
Description: as §1

K. pneumoniae 1227947 = assay type: cell-based, Klebsiella pneumoniae; conditions: 1227947, 20 h
Description: as §1

K. pneumoniae 1228586 = assay type: cell-based, Klebsiella pneumoniae; conditions: 1228586, 20 h
Description: as §1

K. pneumoniae ATCC 13883 = assay type: cell-based, Klebsiella pneumoniae; conditions: ATCC 13883, 20 h
Description: as §1

P. aeruginosa 1218019 = assay type: cell-based, Pseudomonas aeruginosa; conditions: 1218019, 20 h
Description: as §1

P. aeruginosa 1226072 = assay type: cell-based, Pseudomonas aeruginosa; conditions: 1226072, 20 h
Description: as §1

P. aeruginosa PAO1 = assay type: cell-based, Pseudomonas aeruginosa; conditions: PAO1, 20 h
Description: as §1

Rabbit red blood cells = assay: Hemolysis assay; assay type: cell-based; conditions: rabbit red blood cells in PBS, 37 °C, 1 h, absorbance at 405 nm, normalization to the Triton X-100 control; 0.25 to 128 μg/mL tested
Description: Peptides, dissolved in DMSO, were dispensed into 96-well round-bottom microplates using a TECAN D300e dispenser and subsequently diluted with 100 μL of PBS. PBS or 2% Triton X-100 was used as negative and positive controls, respectively. Rabbit red blood cells (BioConcept) were diluted in PBS to a final concentration of 2%, and 100 μL was added to each well of the prepared 96-well plates. The final concentration of the test compounds was 0.25 to 128 μg/mL. Plates were incubated at 37 °C for 1 h and afterward subjected to centrifugation at 1000g for 5 min. Then, 30 μL of supernatant was transferred to a new round-bottom plate, and absorbance was measured at 405 nm (TECAN Infinite F200). EC50s were calculated after blank subtraction and normalization to the Triton control.

HepG2 cells = assay: Cytotoxicity determination (CellTiter-Glo); assay type: cell-based; conditions: HepG2, medium without serum, 24 h, normalization to the untreated control, 1 to 128 μg/mL tested
Description: HepG2 cells were grown in EMEM (Sigma) supplemented with 2 mM glutamine and 10% fetal bovine serum (Fisher) at 37 °C, 5% CO2. 20′000 cells per well were seeded into clear tissue culture-treated 96-well plates and incubated for 24 h. Peptides, dissolved in DMSO, were dispensed into 96 deep well plates (TECAN D300e dispenser) and diluted to a final concentration of 1 to 128 μg/mL using fresh medium without serum. The next day, the old media were removed from the cells, and 200 μL of the prepared compound dilutions was added per well. Plates were incubated for another 24 h before assessing the cell viability using the CellTiter-Glo kit (Promega) according to the manufacturer’s protocol. IC50s were calculated after normalization to the untreated control.

[1] = test system: Gram-positive bacteria (Staphylococcus aureus, Enterococcus faecalis, Enterococcus faecium); assay: MIC, summary over Gram-positive strains; assay type: cell-based; conditions: at a concentration of 64 μg/mL; summary of Table 2
Description: as §1

[2] = test system: Gram-negative ESKAPE pathogens; assay type: cell-based; conditions: 20 h
Description: as §1

SMILES	MIC (S. aureus 1126387) [µg/mL]	MIC (S. aureus ATCC 29213) [µg/mL]	MIC (S. aureus UAMS-1625) [µg/mL]	MIC (ATCC 25922) [µg/mL]	MIC (E. faecalis ATCC 29212) [µg/mL]	MIC (E. faecium ATCC 51559) [µg/mL]	MIC (E. faecium IHMA 890472) [µg/mL]	MIC (A. baumannii ATCC 17978) [µg/mL]	MIC (A. baumannii HUMC1) [µg/mL]	MIC (A. baumannii IHMA 777621) [µg/mL]	MIC (E. coli 1214245) [µg/mL]	MIC (E. coli 1220120) [µg/mL]	MIC (E. coli ATCC 25922) [µg/mL]	MIC (K. pneumoniae 1227947) [µg/mL]	MIC (K. pneumoniae 1228586) [µg/mL]	MIC (K. pneumoniae ATCC 13883) [µg/mL]	MIC (P. aeruginosa 1218019) [µg/mL]	MIC (P. aeruginosa 1226072) [µg/mL]	MIC (P. aeruginosa PAO1) [µg/mL]	Hemolysis EC50 (Rabbit red blood cells) [µg/mL]	also measured
CCCCCCCC(=O)N[C@@H](C(=O)N[C@H](CCN)C(=O)NCC(=O)N[C@H](CO)C(=O)N[C@H](Cc1c[nH]c2ccccc12)C(=O)N[C@@H](CO)C(=O)N[C@@H](CCN)C(=O)N[C@H](CCN)C(=O)NCC(=O)N[C@@H](CCC(=O)O)C(=O)N[C@H](C(=O)N[C@@H](C(=O)N[C@@H](C)C(=O)O)[C@@H](C)CC)C(C)C)C(C)C [Oct-Gly9] (Octanoyl-[dV][dDab]G[dS][dW]S[Dab][dDab]GEV[d(aIle)]A-OH)	>64	>64	>64	>64	>64	>64	>64	>64	>64	>64	16 (≈ 11.2 µM)	16 (≈ 11.2 µM)	16 (≈ 11.2 µM)	32 (≈ 22.4 µM)	8 (≈ 5.59 µM)	16 (≈ 11.2 µM)	>64	32 (≈ 22.4 µM)	64 (≈ 44.7 µM)	>128	IC50 on HepG2 w/o FCS (HepG2 cells): >128 µg/mL; antibacterial activity against Gram-positive bacteria [1]: no antibacterial activity; MICs, range over Gram-negative pathogens [2]: 8 to 64 µg/mL
CCCCCCCC(=O)N[C@@H](C(=O)N[C@H](CCN)C(=O)NCC(=O)N[C@H](CO)C(=O)N[C@H](Cc1c[nH]c2ccccc12)C(=O)N[C@@H](CO)C(=O)N[C@@H](CCN)C(=O)N[C@H](CCN)C(=O)N[C@@H](CO)C(=O)N[C@@H](CCC(=O)O)C(=O)N[C@H](C(=O)N[C@@H](C(=O)N[C@@H](C)C(=O)O)[C@@H](C)CC)C(C)C)C(C)C [Oct-Ser9] (Octanoyl-[dV][dDab]G[dS][dW]S[Dab][dDab]SEV[d(aIle)]A-OH)	>64	>64	>64	>64	>64	>64	>64	>64	>64	>64	64 (≈ 43.8 µM)	32 (≈ 21.9 µM)	32 (≈ 21.9 µM)	>64	8 (≈ 5.48 µM)	64 (≈ 43.8 µM)	32 (≈ 21.9 µM)	32 (≈ 21.9 µM)	>64	>128	IC50 on HepG2 w/o FCS (HepG2 cells): >128 µg/mL; antibacterial activity against Gram-positive bacteria [1]: no antibacterial activity; MICs, range over Gram-negative pathogens [2]: 8 to 64 µg/mL
